Test results as given in patent US20070167349A1, “Estrogen cancer therapy” (Cell Therapeutics, Inc., priority 2005, published 2007).

What was measured:
[1] = system: HT-29 human CRC xenograft tumor model; assay: Effect of circulating estrogen on tumor growth; format: in vivo, female CD nu/nu mice; conditions: increased levels of estrogen, s.c. controlled release pellets 0.17, 0.36, 0.72 mg/60 days
cathepsin B = assay: Cathepsin B activity assay in tumor homogenate (Z-Arg-Arg-AMC); format: in vivo; conditions: HT-29 tumors; increased levels of estrogen, s.c. pellets
Experimental: Cathepsin B activity assay was performed as follows: proteins were extracted by homogenization in cathepsin B buffer in ratio of 1 ml of buffer per 100 mg of tissue. The test utilized the ability of cathepsin B to digest the synthetic substrate Z-Arg-Arg-AMC. Released AMC was determined fluorometrically at excitation wavelength 390 nm and emission wave-length 460 nm. The activity of cathepsin B was quantified versus an AMC standard curve.

ERβ = target: T1, ERβ (Homo sapiens, UniProt Q92731); assay: ERβ expression (western blot) and activation (RT-PCR of E-Cadherin, Id-2) in xenograft tumors; format: in vivo; conditions: HT-29 and H460 xenograft tumors, E2 supplements
T1 construct: proteins were extracted by homogenization in RIPA buffer; from tissue; host or cells: HT-29 and H460 human xenograft tumours in female CD nu/nu mice
T1 sequence (Q92731 whole entry): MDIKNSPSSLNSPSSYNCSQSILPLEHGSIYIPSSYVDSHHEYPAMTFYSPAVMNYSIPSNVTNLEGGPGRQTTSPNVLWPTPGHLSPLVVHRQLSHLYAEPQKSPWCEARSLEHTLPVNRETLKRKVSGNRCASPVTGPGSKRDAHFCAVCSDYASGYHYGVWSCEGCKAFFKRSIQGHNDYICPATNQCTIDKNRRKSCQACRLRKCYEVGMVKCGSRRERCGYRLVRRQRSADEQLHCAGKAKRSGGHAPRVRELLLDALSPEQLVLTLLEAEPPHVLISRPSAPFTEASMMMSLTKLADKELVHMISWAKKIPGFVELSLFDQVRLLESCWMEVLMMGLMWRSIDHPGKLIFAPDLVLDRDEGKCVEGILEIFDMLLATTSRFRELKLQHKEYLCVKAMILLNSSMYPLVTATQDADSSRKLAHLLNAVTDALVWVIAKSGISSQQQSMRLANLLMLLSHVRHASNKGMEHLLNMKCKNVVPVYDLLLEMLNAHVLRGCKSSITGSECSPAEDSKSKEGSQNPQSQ
Experimental: ERα, ERβ, E-Cadherin and Id-2 gene expression was determined by RT-PCR, relating their RNA expression to that of GAPDH gene. Total RNA extracted from tumors was reversely transcribed by Thermoscript RT-PCR System (INVITROGEN). The cDNA generated was used as template for PCR with primers specific for ERα and β, E-Cadherin and Id-2.
Western blot analysis was performed as follows: proteins were extracted by homogenization in RIPA buffer and their content was determined by Bio-Rad Protein Assay. Protein aliquots were separated by size on 10% SDS-PAGE and transferred to nitrocellulose membrane. Immunodetection was performed using: anti-ERa Polyclonal Ab (HC-20, Santa Cruz Biotechnologies), […] Polyclonal Ab (06-629, Upstate Biotechnologies), anti-α-Actin (Sigma), and anti-α-Tubulin (Santa CruzBiotechnologies).
The effect of estradiol on ERβ expression in HT-29 human CRC and H460 human NSCLC was analyzed by western blot (FIGS. 9 and 10, respectively.).
The effect of estradiol on ERβ activation in HT-29 human CRC and H460 human NSCLC cells was analyzed by RT-PCR, where increased expression of the E-Cadherin gene (in HT-29 cells) and increased expression of the Id-2 gene (in H460 cells) is indicative of ERP activation (FIGS. 11 and 12, respectively.).

NSCLC [2] = assay: Phase III study (STELLAR 3): CT-2103/PPX + carboplatin vs paclitaxel + carboplatin, overall survival by estrogen level; format: in vivo, human; conditions: CT-2103 210 mg/m^2 + carboplatin AUC 6 vs paclitaxel 225 mg/m^2 + carboplatin AUC 6
From the text: The experiments and results presented in example 1 describe the correlation between estrogen levels and treatment with CT-2103 versus paclitaxel, as measured by overall survival (OS). The data depicted in FIGS. 1 and 2 were derived from a multinational, phase III, open-label study. […] Randomization was stratified to minimize potential imbalances between the 2 treatment arms. After they were selected for the study, patients were stratified by disease stage (IV vs other), gender, geographic location (US vs. Western Europe and Canada vs. rest of the world), and history of brain metastases (yes vs. no).
From the initial sample set, a subset consisting of either high or low estrogen women was analyzed. […] Estrogen levels in women were determined by a competitive immunoassay (e.g., DPC […] 2000 Analyzer, NY; DPC […] Analyzer, Ireland). […]
Patients received CT-2103/carboplatin or paclitaxel/carboplatin, by intravenous infusion, on day 1 of each 21-day cycle for a total of 6 cycles. Toxicities were evaluated at each patient visit. Hematology, clinical chemistry, and coagulation parameters were evaluated before and during the study period. […] The efficacy and safety outcomes of this study were monitored by an independent Data Monitoring Committee (DMC).
Efficacy of the treatments was determined by evaluation of tumor burden according to RECIST. […]

NSCLC [3] = assay: Composite analysis of two phase III studies (STELLAR 3 and STELLAR 4): survival by sex and age, PPX vs control; format: in vivo, human; conditions: for HR: PPX vs CONTROL
Experimental: Two phase III studies, enrolling a total of 781 patients with NSCLC and a poor performance status (PS2), were conducted. […] In order to study the effect of sex and estrogen on survival among the various treatment groups, the results from both phase III clinical trials were combined and a composite analysis performed.
Functional menopausal status was assigned based on age and pretreatment estradiol levels, when available. The study was a composite of results from both clinical studies.

[4] = system: NCI-H460 human lung carcinoma; conditions: H460 tumor cells
[5] = system: HT-29 human CRC xenograft tumor model; conditions: associated with increased cathepsin B activity (E2 supplemented)
Experimental: Antitumor activity parameters were determined as follows: • 1. Tumor weight inhibition % (TWI %) equals 100 minus (TW of treated divided by TW of control) times 100, which was evaluated at day 60 from pellet implant. • 2. Tumor growth delay (TGD): TGD equals TG Treated minus TG Control, where TG is the mean time, in days, for the tumor to reach a weight of 1 gram (g). • 3. Log cell kill (LCK) was calculated by the formula: LCK equals ((TGD 1 g) divided by 3.32) times DT, where DT is the time (days) necessary for the tumor to double in volume, in control and experimental groups.
Statistical analyses were performed using one-way ANOVA Bonferroni post test.

Compound	tumor weight [1]	cathepsin B activity (cathepsin B)	ERβ activation and/or expression (ERβ)	overall survival (OS) (NSCLC [2]; women with postmenopausal (low) estrogen levels)	overall survival (OS) (NSCLC [2]; women with premenopausal (high) estrogen levels)	OS (NSCLC [3]; FEMALE)	HR (NSCLC [3]; FEMALE)	OS (NSCLC [3]; MALE)	HR (NSCLC [3]; MALE)	OS (NSCLC [3]; women under 55 years of age, PPX vs control arm)	mechanism of uptake of intact PPX into the cellular compartment [4]	PPX antitumor activity [5]
C[C@]12CC[C@@H]3c4ccc(O)cc4CC[C@H]3[C@@H]1CC[C@@H]2O [17β estradiol, 17β Estradiol]	increases	increases	induce ERβ activation and/or expression									
paclitaxel poliglumex [PPX]				no apparent effect on survival	improved outcome	285 days	0.70	220 days	1.05	prolonged	energy-dependent endocytosis, in a dose- and time-dependent manner	enhanced
